This note sets out measurements from patent publication US11441142B2, “FLS variant having increased activity” (KONKUK UNIVERSITY INDUSTRIAL COOPERATION CORPORATION, priority 2017, dated 2022).

Type in all cases: biochemical
For assay [1], the target named is T1, Pseudomonas fluorescens FLS (formolase), wild type, SEQ ID NO: 8 (Pseudomonas fluorescens, UniProt Q9F4L3, A28I/A394G/A480W/G419N/L90T/R188H/W89R).
T1 sequence (Q9F4L3 1-563 A28I/A394G/A480W/G419N/L90T/R188H/W89R): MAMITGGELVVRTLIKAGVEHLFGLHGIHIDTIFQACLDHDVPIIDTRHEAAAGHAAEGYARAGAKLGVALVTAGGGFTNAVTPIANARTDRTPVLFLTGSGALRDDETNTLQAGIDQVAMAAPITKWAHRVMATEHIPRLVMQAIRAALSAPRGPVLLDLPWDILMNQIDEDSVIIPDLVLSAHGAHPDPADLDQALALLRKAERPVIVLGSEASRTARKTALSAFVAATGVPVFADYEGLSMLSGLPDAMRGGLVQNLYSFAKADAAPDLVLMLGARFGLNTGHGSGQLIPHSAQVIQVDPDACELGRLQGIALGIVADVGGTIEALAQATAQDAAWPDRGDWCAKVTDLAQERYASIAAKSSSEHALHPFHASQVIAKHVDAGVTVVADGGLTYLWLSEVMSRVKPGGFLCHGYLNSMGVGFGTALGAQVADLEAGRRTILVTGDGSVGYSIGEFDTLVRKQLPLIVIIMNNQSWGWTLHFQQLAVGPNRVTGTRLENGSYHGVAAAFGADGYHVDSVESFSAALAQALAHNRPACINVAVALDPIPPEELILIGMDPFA
Description: kinetic parameters of FLS. Particulars: substrate acetaldehyde, coenzyme TPP (0.1 mM), pH 8.0, room temperature. The procedure: (§1) The kinetic parameters of EtDH and EtDH:D46G were identified by reacting the EtDH and EtDH:D46G with a reaction mixture containing 100 mM glycine-NaOH buffer solution (pH 9.5), 5 mM Mg^2+, 3 mM NAD^+/NADP^+ and 0.5 to 100 mM ethanol at room temperature. The kinetic parameters of FLS and variants thereof were identified by reacting FLS and variants thereof with a reaction mixture containing 100 mM phosphate buffer solution (pH 8.0), 1 mM Mg^+, 0.1 mM TPP and 0.5 to 20 mM acetaldehyde at room temperature. The kinetic parameters of BDH and BDH:S199A were identified by reacting BDH and BDH:S199A with a reaction mixture containing 50 mM Tris-HCl buffer solution (pH 7.5), 0.2 mM NADPH, 1 mM DTT; 0.5 to 100 mM acetoin or 0.5 to 10 mM butanone at room temperature. The Km and kcat values were identified using nonlinear regression fitting of the Michaelis-Menten equation and the fitting were repeated three times.
(§2) In order to compare the catalytic efficiencies via measurement of kinetic parameters of cascade enzymes and variants thereof in accordance with the present disclosure, the following experiment was performed. Specifically, the kinetic parameters of EtDH and EtDH:D46G were identified by reacting EtDH and EtDH:D46G with a reaction mixture containing 100 mM glycine-NaOH buffer solution (pH 9.5), 5 mM Mg^2+, 3 mM NAD^+/NADP^+ and 0.5 to 100 mM ethanol at room temperature. […]

The target of assay [2] is T2, Pseudomonas fluorescens FLS (formolase) variant FLS:L482S, SEQ ID NO: 10 (Pseudomonas fluorescens, UniProt Q9F4L3, A28I/A394G/A480W/G419N/L482S/L90T/R188H/W89R).
T2 sequence (Q9F4L3 1-563 A28I/A394G/A480W/G419N/L482S/L90T/R188H/W89R): T1 sequence (Q9F4L3 1-563 A28I/A394G/A480W/G419N/L90T/R188H/W89R) with L482S
In words: kinetic parameters of FLS:L482S. Particulars: substrate acetaldehyde. The procedure:
as §1, §2

The target of assay [3] is T3, Pseudomonas fluorescens FLS (formolase) variant FLS:L482R, SEQ ID NO: 11 (Pseudomonas fluorescens, UniProt Q9F4L3, A28I/A394G/A480W/G419N/L482R/L90T/R188H/W89R).
T3 sequence (Q9F4L3 1-563 A28I/A394G/A480W/G419N/L482R/L90T/R188H/W89R): T1 sequence (Q9F4L3 1-563 A28I/A394G/A480W/G419N/L90T/R188H/W89R) with L482R
In words: kinetic parameters of FLS:L482R. Particulars: substrate acetaldehyde. The procedure: as §1, §2

The target in assay [4] is T4, Pseudomonas fluorescens FLS (formolase) variant FLS:L482E, SEQ ID NO: 12 (Pseudomonas fluorescens, UniProt Q9F4L3, A28I/A394G/A480W/G419N/L482E/L90T/R188H/W89R).
T4 sequence (Q9F4L3 1-563 A28I/A394G/A480W/G419N/L482E/L90T/R188H/W89R): T1 sequence (Q9F4L3 1-563 A28I/A394G/A480W/G419N/L90T/R188H/W89R) with L482E
Description: kinetic parameters of FLS:L482E. Particulars: substrate acetaldehyde, coenzyme TPP (0.1 mM), pH 8.0, room temperature. The procedure: as §1, §2

Assay [5] relates to Pseudomonas fluorescens FLS (formolase) variant FLS:L482E, SEQ ID NO: 12. In words: kinetic parameters of FLS:L482E. Particulars: substrate acetaldehyde, coenzyme TPP. The protocol:
as §1, §2

[6] abbreviates: coenzyme TPP (0.1 mM), pH 8.0, room temperature.

Changes are numbered by the printed parent chain.

The kcat/Km is the turnover number divided by the Michaelis constant.

As to `CC=O` [Acetaldehyde], the catalytic efficiency (kcat/Km) turned out to be 7.69 M⁻¹ s⁻¹ in assay [1], 13.3 M⁻¹ s⁻¹ in assay [2] (setting [6]), 10.6 M⁻¹ s⁻¹ in assay [3] (setting [6]) and 9.66 M⁻¹ s⁻¹ in assay [4]. Also, the entries for the “increase of catalyst efficiency (kcat/Km) compared to wild-type FLS” value in assay [2] (coenzyme TPP), in assay [3] (coenzyme TPP) and in assay [5] were 72.95%, 37.84% and 25.62%, respectively.
